Earlier results in patent US9260429B2, “Pyrido[3,4-B]indoles and methods of use” (Medivation Technologies, Inc., priority 2008, dated 2016).

Key:
neuronal cells = conditions: cited from earlier work
brain cells (neurons) = conditions: preclinical models of Alzheimer's disease and Huntington's disease; cited from earlier work
[1] = tested on: cells treated with ionomycin; conditions: after treatment with the cell toxin ionomycin; dose dependent; cited from earlier work

SMILES: Cc1ccc2c(c1)c1c(n2CCc2ccc(C)nc2)CCN(C)C1 [Dimebon, dimebon]
- neurite outgrowth and neurogenesis (neuronal cells): promote neurite outgrowth and neurogenesis
- death of brain cells (neurons) (brain cells (neurons)): inhibit the death of brain cells (neurons)
- mitochondrial function [1]: improved mitochondrial function
- number of surviving cells [1]: increased the number of surviving cells
